Measurements as given in publication PMC9657236, “Anti-Leukemic Activity of Brassica-Derived Bioactive Compounds in HL-60 Myeloid Leukemia Cells” (International Journal of Molecular Sciences, 2022).
Where two headings read alike, the source gives them in different places.

Assays:
[1] = system: NRF2/KEAP1 signaling pathway; assay: RT-qPCR gene expression in undifferentiated HL-60 cells; type: cell-based, human; settings: for expression levels of the NRF2-target genes HMOX, NQO1 and GSTA1 (in words): undifferentiated HL-60, RT-qPCR, dose-dependent
From the text: Total RNA was extracted from HL-60 cells using the GenElute Mammalian Total RNA Miniprep kit (Sigma) following the manufacturer’s instructions. RNA was eluted in RNAse-free water and checked for concentration and purity using the Nanodrop spectrophotometer system (ND-100 3.3. Nanodrop Technologies, Thermo Scientific, Madrid, Spain). Only samples with a ratio of Abs260/Abs280 between 1.8 and 2.1 were used for gene expression assays. cDNA was generated using a high-capacity RNA-to-cDNA kit (Thermo Fisher Scientific, Madrid, Spain) according to the manufacturer’s protocol. PCR amplification was carried out with PowerUp SYBR Green PCR Master Mix (Applied Biosystems, Waltham, MA, USA) using a Fast 7500 Real-Time instrument (Applied Biosystems, Waltham, MA, USA). The obtained data were analyzed using the 7500 SDS software (Applied Biosystems, Waltham, MA, USA). Actin beta (ACTB) and Glyceraldehyde 3-phosphate dehydrogenase (GAPDH) were used as reference genes. Both were considered suitable reference genes for gene expression normalization based on geNorm and/or Bestkeeper stability analysis. The gene-stability measures were performed using the RefFinder tool. Relative expression was calculated using the 2^−ΔΔCt method. All experiments were performed in triplicate and in three independent experiments.

HL-60 cells [2] = assay: MTT viability assay in proliferative HL-60 cells; type: cell-based, human; settings: for IC50: proliferative HL-60 cells, mean ± SD, n = 3; for IC50 / effect on HL-60 cell viability (in words): MTT; for cytotoxic effect (in words): after 24 h; for effect on HL-60 cell viability (in words): doses up to 50 µM, 24, 48 and 72 h
Protocol: The human acute myeloid leukemia cell line HL-60 (ATCC® CCL-240™) was used to test the Brassica spp. phytochemicals. Maintenance of the cells was performed as previously described. Briefly, cells were grown in RPMI-1640 medium (Biowest) supplemented with 10% fetal bovine serum (FBS; Gibco, Thermo Fisher Scientific, Madrid, Spain) and 1% penicillin/streptomycin (Gibco, Thermo Fisher Scientific, Madrid, Spain), at 37 °C with 5% CO2 and 90% humidity. All in vitro assays were performed after passage number 5 and before passage number 20 with cells growing at an exponential ratio.
The anti-tumor activity of the compounds was evaluated by the MTT (3-(4,5-dimethylthiazol-2-yl)-2,5-diphenyltetrazolium bromide) viability assays as described previously. In brief, HL-60 cells were cultured at a concentration of 10^5 cells/mL (exponential growth rate) in 96-well plates containing 200 μL of cell culture medium and exposed to different doses of the tested compounds (0.5 μM, 1 μM, 5 μM, 10 μM, 25 μM, and 50 μM) for 24, 48, and 72 h. Then, MTT (Thermo Fisher) was added at a final concentration of 483 μM (0.2 mg/mL) and cells were incubated for 1 h at 37 °C and 5% CO2. Afterward, cells were lysed using an acidified isopropanol solubilization solution containing 0.04 M hydrochloric acid and 0.1% NP-40 detergent to release the formazan. Finally, the absorbance was measured at 550 nm using a SPECTROstar Nano (BMG Labtech, Germany) plate reader. The compound cytotoxicity was normalized to the control conditions (untreated with an equivalent dose of vehicle (DMSO) when applicable).

[3] = MTT viability assay in macrophage-like differentiated HL-60 cells; type: cell-based, human; settings: human, macrophage-like differentiated HL-60 cells (PMA), differentiated HL-60 cells, 48 h, MTT, mean ± SD
Protocol: (§1) In order to test the specificity of the compounds as potential anti-tumor/cytotoxic agents with no collateral negative effects upon non-proliferative cells, the series of compounds were also assayed in an in vitro model of human macrophage-like cells derived from the same HL-60 cell line. To obtain these differentiated macrophage-like cells, HL-60 human leukemia cells growing at an exponential rate in suspension were exposed to a dose of 10 ng/mL of phorbol myristate acetate (PMA) (Sigma-Aldrich, Merck, Análisis Vínicos SL, Tomelloso, Spain) for 24 h in 96-well plates at a cell density of 0.2·10^6 HL-60 cells/well at 37 °C and 5% CO2. Cells were then incubated in culture media without PMA for another 24 h in the same culture conditions. After differentiation and resting periods, differentiated cells were treated for 48 h with compound solutions at different concentrations. Finally, MTT assays were performed as previously explained to measure cell viability. All experiments were performed in triplicate and in three independent experiments.

HL-60 cells [4] = system: HL-60 cells; design: method as in PMID 15135302; settings: apoptosis induction and cytodifferentiation; cited from earlier work
[5] = system: HL-60 differentiated cells; assay: MTT viability assay in macrophage-like differentiated HL-60 cells; type: cell-based, human
Protocol: as §1

[6] = Homo sapiens, HL-60, higher dose (50 µM), 48 h, read-out: cell viability

## OC[C@H]1O[C@@H](Oc2cc3c(O)cc(O)cc3[o+]c2-c2ccc(O)c(O)c2)[C@H](O)[C@@H](O)[C@@H]1O [C3G, cyanidin-3-glucoside chloride]
[1]
  expression levels of the NRF2-target genes HMOX, NQO1 and GSTA1 (in words): markedly induce
HL-60 cells [2]; 10–50 µM doses, 24 h
  cell viability: around 40%
HL-60 cells [2]; 25 and 50 µM, 48 h and 72 h
  cell viability: below 20%
HL-60 cells [2]; Homo sapiens, 48 h treatment
  IC50: 7 ± 1 µM
HL-60 cells [2]; Homo sapiens, 72 h treatment
  IC50: 21.9 ± 0.3 µM
[3]
  viability at 48 h, 10 µM: 114 ± 24.4%
  viability at 48 h, 25 µM: 108 ± 7.4%
  viability at 48 h, 50 µM: 107 ± 12.8%
HL-60 cells [4]
  concentrations needed to inhibit the proliferative capacity of HL-60 cells: > 100 µM

## O=C(/C=C/c1ccc(O)c(O)c1)O[C@@H]1C[C@](O)(C(=O)O)C[C@@H](O)[C@H]1O [CQA, Chlorogenic acid]
[1]
  expression levels of the NRF2-target genes HMOX, NQO1 and GSTA1 (in words): markedly induce
HL-60 cells [2]; Homo sapiens, HL-60, 25 µM treatment, 48 and 72 h, read-out: cell viability
  viability at 25 µM: < 50%
HL-60 cells [2]; [6]
  viability at 50 µM: 13%
HL-60 cells [2]; Homo sapiens, HL-60, higher dose (50 µM), 72 h, read-out: cell viability
  viability at 50 µM: 11%
HL-60 cells [2]; Homo sapiens, 48 h treatment
  IC50: 17.4 ± 0.7 µM
HL-60 cells [2]; Homo sapiens, 72 h treatment
  IC50: 28.9 ± 0.7 µM
[3]
  viability at 48 h, 10 µM: 114 ± 19.2%
  viability at 48 h, 25 µM: 114 ± 20.6%
  viability at 48 h, 50 µM: 109 ± 11.8%

## c1ccc2c(Cc3c[nH]c4ccccc34)c[nH]c2c1 [DIM, 3,3′-Diindolmethane]
HL-60 cells [2]; [6]
  viability at 50 µM: 25%
HL-60 cells [2]
  cytotoxic effect (in words): mild but significant cytotoxic effect
HL-60 cells [2]; higher dose (50 µM), 48 h
  maximum cytotoxicity: 75%
[3]
  viability at 48 h, 10 µM: 102 ± 22.7%
  viability at 48 h, 25 µM: 118 ± 27.2%
  viability at 48 h, 50 µM: 105 ± 13.5%

## O=S(=O)(O)O/N=C(/Cc1c[nH]c2ccccc12)S[C@@H]1O[C@H](CO)[C@@H](O)[C@H](O)[C@H]1O [GBS, glucobrassicin]
HL-60 cells [2]
  effect on HL-60 cell viability (in words): did not show any effect

## CSCCCCC(=NOS(=O)(=O)O)SC1OC(CO)C(O)C(O)C1O (stereo not drawn) [GER, glucoerucin]
HL-60 cells [2]
  effect on HL-60 cell viability (in words): did not show any significant effects

## C[S+]([O-])CCCC/C(=N\OS(=O)(=O)O)S[C@@H]1O[C@H](CO)[C@@H](O)[C@H](O)[C@H]1O (stereo partly drawn) [GRA, glucoraphanin]
HL-60 cells [2]
  effect on HL-60 cell viability (in words): did not show any significant effects

## OCc1c[nH]c2ccccc12 [I3C, indole-3-carbinol]
HL-60 cells [2]; Homo sapiens, HL-60, maximum dose (50 µM), 24 h, read-out: cell viability
  viability at 50 µM: 38%
HL-60 cells [2]
  cytotoxic effect (in words): mild but significant cytotoxic effect
[3]
  viability at 48 h, 10 µM: 93.6 ± 8%
  viability at 48 h, 25 µM: 99.5 ± 5.4%
  viability at 48 h, 50 µM: 95.1 ± 10.4%

## C[S+]([O-])CCCCN=C=S (stereo not drawn) [SFN, sulforaphane]
[1]; HL-60 cells
  induction of the NRF2/KEAP1 signaling pathway (in words): most potent NRF2 activator
[1]
  expression levels of the NRF2-target genes HMOX, NQO1 and GSTA1 (in words): markedly induce
HL-60 cells [2]; 25 µM and 50 µM, all time points (24, 48 and 72 h)
  cytotoxicity levels: above 95%
HL-60 cells [2]; Homo sapiens, HL-60, 48 h, 48 h treatment
  IC50: 6 µM
HL-60 cells [2]; Homo sapiens, HL-60, 72 h, 72 h treatment
  IC50: 11.3 ± 0.5 µM
HL-60 cells [2]; Homo sapiens, HL-60, 10 µM dose, all time points (24, 48, 72 h)
  viability at 10 µM: < 50%
HL-60 cells [2]; 48 h treatment
  IC50: 5.9 ± 0.3 µM
[3]
  viability at 48 h, 10 µM: 98.2 ± 12.1%
  viability at 48 h, 25 µM: 87.6 ± 6.8%
  viability at 48 h, 50 µM: 70 ± 17.5%
[5]; 10 µM
  cytotoxicity in differentiated cells (in words): did not cause significant cytotoxicity
[5]; concentrations higher than 10 µM, 48 h
  cytotoxic effect in differentiated HL-60 cells (in words): significant cytotoxic effect

## COc1cc(/C=C/C(=O)O)cc(OC)c1O [SIA, sinapic acid]
HL-60 cells [2]
  effect on HL-60 cell viability (in words): did not have any effect whatsoever
